Among the data in patent US20220009914A1, “Analogs of Nitrofuran Antibiotics to Combat Resistance” (The Trustees of Indiana University, priority 2020, published 2022) are IC50 and EC50 values, retold here.

For one assay, the target named is T1, E. coli GroEL/ES (Escherichia coli, UniProt P0A6F5).
T1 construct: made in house; host or cells: GroEL in NEB 5-alpha E. coli; GroES in E. coli BL21 (DE3)
Description: GroEL/ES-mediated dMDH refolding assay in the presence of E. coli NfsB nitroreductase. The format is biochemical. An outline of the steps:
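10 μg/mL E. coli NfsB nitroreductase included with GroEL/ES-dMDH; after compound, NADH (2.4 mM solution) added and 10 min at 37° C for nitrofuran bioactivation, then standard refolding protocol. IC50 averaged over at least four replicates.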

The target of the next assay is T2, native MDH (Sus scrofa, UniProt P00346).
T2 sequence (P00346 25-338): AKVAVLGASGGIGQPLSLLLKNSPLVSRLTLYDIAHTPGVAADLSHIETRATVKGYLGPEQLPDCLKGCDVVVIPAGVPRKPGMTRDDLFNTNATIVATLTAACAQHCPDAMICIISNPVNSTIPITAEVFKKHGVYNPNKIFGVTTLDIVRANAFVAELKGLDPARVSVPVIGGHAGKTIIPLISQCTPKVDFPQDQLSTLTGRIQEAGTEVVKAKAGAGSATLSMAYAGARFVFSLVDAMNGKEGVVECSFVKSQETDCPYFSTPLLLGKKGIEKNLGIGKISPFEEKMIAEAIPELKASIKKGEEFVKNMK
The assay can be described thus: native MDH activity counter-screen in the presence of E. coli NfsB nitroreductase. The format is biochemical, pig. Put shortly: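 Native MDH activity measured in presence of E. coli NfsB nitroreductase, otherwise as the standard no-NfsB protocol. IC50 values are averages of at least four replicates.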
(Counterscreens check selectivity or assay interference.)

Assay [1] relates to Enterococcus faecium strain NCTC 7171 (ATCC #19434). The assay can be described thus: bacterial proliferation assay, E. faecium. The format is cell-based. The following applies: read-out: Bacterial Proliferation EC50 E. faecium. An outline of the steps: (§1)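 BHI + 25 mg/L Ca^2+/12.5 mg/L Mg^2+, 37° C; mid-log inoculum diluted to OD600 0.01; compound 100 μM–46 nM (3-fold, 8 pts). Endpoint OD600 at mid-log, compound-only plates subtracted.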

The test system of assay [2] is Pseudomonas aeruginosa strain NCTC 10332 (ATCC #10145). The assay can be described thus: bacterial proliferation assay, P. aeruginosa. The format is cell-based. Particulars: read-out: Bacterial Proliferation EC50 P. aeruginosa. An outline of the steps: as §1
For assay [3], the system named is Enterobacter cloacae strain CDC 442-68 (ATCC #13047). The assay can be described thus: bacterial proliferation assay, E. cloacae. The format is cell-based. The following applies: ATCC13047, read-out: Bacterial Proliferation EC50 E. cloacae. Put shortly:
as §1

The subject of assay [4] is NEB 5-alpha Escherichia coli. Description: bacterial proliferation assay, E. coli. The format is cell-based. The following applies: Escherichia coli, read-out: Bacterial Proliferation EC50 E. coli.
[5] abbreviates: with E. coli NfsB nitroreductase, read-out: Native MDH Activity w/NfsB IC50.

The structures appear in SMILES notation. Read-outs that look alike come from different tables or passages of the source. Where only a bound is given, the exact number is not on record here.

T1 sequence (P0A6F5 2-548): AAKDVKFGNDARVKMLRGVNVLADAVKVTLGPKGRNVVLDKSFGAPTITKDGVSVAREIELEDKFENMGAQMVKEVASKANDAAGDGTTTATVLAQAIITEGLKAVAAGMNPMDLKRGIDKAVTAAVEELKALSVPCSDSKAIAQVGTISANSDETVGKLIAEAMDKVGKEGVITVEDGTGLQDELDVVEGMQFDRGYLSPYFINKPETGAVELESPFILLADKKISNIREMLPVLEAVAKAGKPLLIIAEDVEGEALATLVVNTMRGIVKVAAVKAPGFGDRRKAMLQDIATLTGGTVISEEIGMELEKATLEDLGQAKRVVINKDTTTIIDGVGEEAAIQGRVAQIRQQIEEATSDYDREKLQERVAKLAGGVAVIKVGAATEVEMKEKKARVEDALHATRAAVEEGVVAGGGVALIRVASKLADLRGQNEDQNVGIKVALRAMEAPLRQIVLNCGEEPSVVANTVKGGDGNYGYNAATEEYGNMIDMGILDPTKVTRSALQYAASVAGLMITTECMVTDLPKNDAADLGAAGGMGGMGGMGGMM

Regarding `O=C(N/N=C/c1cccc2ccccc12)c1ccccc1` [Compound 34, N′-(naphthalen-1-ylmethylene)benzohydrazide], the IC50 at E. coli GroEL/ES is greater than 83 µM; at native MDH (setting [5]), greater than 56 µM. Further, the EC50 in assay [1], in assay [2], in assay [3] and in assay [4] was greater than 100 µM each time.
On to `O=C(N/N=C/c1ccc([N+](=O)[O-])o1)c1ccc(NS(=O)(=O)c2ccc(Br)cc2)cc1` [Compound 27, 4-bromo-N-(4-(2-((5-nitrofuran-2-yl)methylene)hydrazine-1-carbonyl)phenyl)benzenesulfonamide], for which the IC50 on E. coli GroEL/ES is 2 µM; on native MDH it was greater than 56 µM. Also, the EC50 in assay [1], in assay [2], in assay [3] and in assay [4] was greater than 100 µM throughout.
With `CCN(CC)S(=O)(=O)c1cccc(C(=O)N/N=C/c2ccc(O)c3ncccc23)c1` [Compound 12, N,N-diethyl-3-(2-((8-hydroxyquinolin-5-yl)methylene)hydrazine-1-carbonyl)benzenesulfonamide], the IC50 is 21 µM at E. coli GroEL/ES and greater than 56 µM on native MDH (setting [5]). The EC50 in assay [1] was greater than 100 µM; in assay [2], 85 µM; in assay [3] it was greater than 100 µM; in assay [4], 99 µM.
With `O=Cc1ccc([N+](=O)[O-])o1` [Compound 41, reference compound], the IC50 on E. coli GroEL/ES was greater than 83 µM; at native MDH (setting [5]), greater than 56 µM. Moreover, the EC50 was 20 µM in assay [1], greater than 100 µM in assay [2], 13 µM in assay [3] and 9.5 µM in assay [4].
